Data as given in ChEMBL document CHEMBL3108737, “HIV Integrase Inhibitors for Treatment of HIV Infections and AIDS” (ACS Med Chem Lett, 2014).

target: Human immunodeficiency virus type 1 integrase (Human immunodeficiency virus 1) (UniProt Q7ZJM1); assay: Inhibition of HIV1 integrase-mediated viral replication in human MT4 cells after 72 hrs in presence of 10% normal human serum; assay type: cell-based
Sequence (Q7ZJM1 as listed by the source): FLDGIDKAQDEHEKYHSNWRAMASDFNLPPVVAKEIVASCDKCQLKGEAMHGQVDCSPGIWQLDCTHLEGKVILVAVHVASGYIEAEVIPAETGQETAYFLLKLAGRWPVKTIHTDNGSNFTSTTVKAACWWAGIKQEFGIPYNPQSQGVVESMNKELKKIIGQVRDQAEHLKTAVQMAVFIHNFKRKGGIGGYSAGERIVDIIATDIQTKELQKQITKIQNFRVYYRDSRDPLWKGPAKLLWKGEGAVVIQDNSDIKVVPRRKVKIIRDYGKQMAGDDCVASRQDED

| IC95 | SMILES |
| --- | --- |
| 2260 nM | CN1CCCc2cc(F)ccc2CNC(=O)c2nc3n(c(=O)c2O)CCCCC3N(C)C(=O)C1=O (stereo not drawn) |
| 6 nM | CC[C@H]1COCC2c3nc(c(O)c(=O)n31)C(=O)NCc1cc(C)c(F)cc1OCC/C=C/C(=O)N2C (stereo partly drawn) |
| 9 nM | CC[C@H]1COC[C@@H]2c3nc(c(O)c(=O)n31)C(=O)NCc1ccc(F)cc1OCCCCC(=O)N2C |
